Legend:
Experiment in all cases: relative viability (nuclei count vs DMSO), 5 days (fraction); higher = more cells survive
Palbociclib + Bortezomib = compound: CC(=O)c1c(C)c2cnc(Nc3ccc(N4CCNCC4)cn3)nc2n(C2CCCC2)c1=O [Palbociclib] + CC(C)C[C@H](NC(=O)[C@H](Cc1ccccc1)NC(=O)c1cnccn1)B(O)O [Bortezomib] (partner 0.002 µM)
In short: (§1)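 A single step with final 0.05% Triton X-100, 1% formaldehyde and 1 ug/ml Hoechst fixed the cells and stained nuclei 5 days after treatment. Lung cancer cell lines in 1536-well plates had been treated by pin tool the day after seeding with one drug alone or a fixed anchor-drug dose plus five library-drug doses (not always all listed) in √10 steps, and nuclei were counted on 4× images. Relative viability is the ratio of nuclei in treated wells to nuclei in vehicle wells, taken as the median of duplicate plates.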

Palbociclib + Linsitinib = compound: CC(=O)c1c(C)c2cnc(Nc3ccc(N4CCNCC4)cn3)nc2n(C2CCCC2)c1=O [Palbociclib] + C[C@]1(O)C[C@@H](c2nc(-c3ccc4ccc(-c5ccccc5)nc4c3)c3c(N)nccn32)C1 [Linsitinib] (partner 1 µM)
In short: as §1

Palbociclib + AZD7762 = compound: CC(=O)c1c(C)c2cnc(Nc3ccc(N4CCNCC4)cn3)nc2n(C2CCCC2)c1=O [Palbociclib] + NC(=O)Nc1cc(-c2cccc(F)c2)sc1C(=O)N[C@H]1CCCNC1 [AZD7762] (partner 0.2 µM)
In short: as §1

Palbociclib + Navitoclax = compound: CC(=O)c1c(C)c2cnc(Nc3ccc(N4CCNCC4)cn3)nc2n(C2CCCC2)c1=O [Palbociclib] + CC1(C)CCC(c2ccc(Cl)cc2)=C(CN2CCN(c3ccc(C(=O)NS(=O)(=O)c4ccc(N[C@H](CCN5CCOCC5)CSc5ccccc5)c(S(=O)(=O)C(F)(F)F)c4)cc3)CC2)C1 [Navitoclax] (partner 0.5 µM)
In short: as §1

Cell Line	relative viability (Palbociclib + Bortezomib; first compound 0.01 µM)	relative viability (Palbociclib + Bortezomib; first compound 0.1 µM)	relative viability (Palbociclib + Bortezomib; first compound 0.3162 µM)	relative viability (Palbociclib + Bortezomib; first compound 1 µM)	relative viability (Palbociclib + Linsitinib; first compound 0.01 µM)	relative viability (Palbociclib + Linsitinib; first compound 0.1 µM)	relative viability (Palbociclib + Linsitinib; first compound 0.3162 µM)	relative viability (Palbociclib + Linsitinib; first compound 1 µM)	relative viability (Palbociclib + AZD7762; first compound 0.01 µM)	relative viability (Palbociclib + AZD7762; first compound 0.1 µM)	relative viability (Palbociclib + AZD7762; first compound 0.3162 µM)	relative viability (Palbociclib + AZD7762; first compound 1 µM)	relative viability (Palbociclib + Bortezomib; first compound 0.03162 µM)	relative viability (Palbociclib + Navitoclax; first compound 0.01 µM)	relative viability (Palbociclib + Navitoclax; first compound 0.03162 µM)	relative viability (Palbociclib + Navitoclax; first compound 0.1 µM)	relative viability (Palbociclib + Navitoclax; first compound 0.3162 µM)	relative viability (Palbociclib + Navitoclax; first compound 1 µM)	relative viability (Palbociclib + Linsitinib; first compound 0.03162 µM)	relative viability (Palbociclib + AZD7762; first compound 0.03162 µM)
NCI-H650	0.912	0.61	0.637	0.377	0.866	0.646	0.635	0.436	0.949	0.978	0.921	0.686								
Calu-6	0.926	0.727	0.89	0.412	0.982	0.784	0.746	0.578					0.95	0.863	0.792	0.683	0.549	0.479	0.921	
LCLC-97TM1	0.729	0.396	0.319	0.138	0.185	0.167	0.165	0.158	0.391	0.252	0.199	0.152	0.514	0.401		0.27	0.294	0.281		
NCI-H441		0.446	0.558	0.367	0.652	0.483	0.487	0.275	1.04	0.896	0.743	0.598	0.365		0.593	0.336	0.484	0.572	0.383	0.844
NCI-H522									1.01	0.934	0.843	0.814								0.453
NCI-H2347	1.01	0.929		0.684	1.04	0.597	0.723	0.595	0.793	0.646	0.633	0.48		0.835	0.751	0.646	0.6	0.533	0.868	0.638
NCI-H2228	1.08	0.88	0.875	0.89	0.51	0.674	0.598	0.83					0.871	0.99	1.01	0.729	0.856	0.827	0.573	
NCI-H1355	1.14	1.17	1.01	0.723	0.807	0.754	0.687	0.549	0.672	0.733	0.697	0.571		0.943		0.772	0.755	0.597		0.572
HCC-44	0.824	0.844	0.836	0.911	0.661	0.691	0.679	0.661	1.03	0.97	0.96	1.01	0.804	0.948	0.953	1.03	0.99	1.02	0.648	0.98
NCI-H1650	0.229	0.176	0.187	0.215									0.227	1.41	1.07	0.948	1.03	0.673		
NCI-H1944					1.15	1.06	1.08	0.836	0.557	0.504	0.428	0.375		1.03	1.06	0.878	1.03	0.987	0.993	0.44
COR-L 105	0.759	0.486	0.504	0.363	0.987	0.509	0.571	0.429					0.435	0.943	0.808	0.669	0.586	0.401	0.91	
NCI-H1648									0.841	0.598	0.657	0.56								0.436
PC-14	1.02	0.751	0.655	0.57	1.04	0.869	0.802	0.689	0.453	0.277	0.289	0.16	0.863	1.14	0.932	0.908	0.877	0.605	0.847	0.349
NCI-H23	1.12	0.87	0.703	0.553	0.794	0.509	0.46	0.398	0.304	0.268	0.248	0.217		1.13		0.79	0.789	0.572		0.324
LOU-NH91	0.458	0.441	0.446	0.489	1.02	0.668	0.6	0.605	0.753	0.62	0.572	0.528	0.439	0.721	0.491	0.457	0.505	0.462	0.79	0.679
ChaGo-K-1	1.11	1.02	1.14	1.11					0.885	0.867	0.905	0.861	0.828	1.22	0.463	1.08	1.09	1.18		
HCC-827	1.09	0.954	0.948	0.857	0.945	0.88	0.885	0.71	0.245	0.202	0.203	0.168	0.804	1.03	1.01	0.99	0.953	0.769	0.879	0.211
COR-L23	0.952	0.831	0.721	0.344	0.9	0.637	0.552	0.344					0.795	0.977	0.759	0.681	0.544	0.477	0.844	
SK-MES-1					1.01	0.791	0.772	0.609						1.36	1.22	0.821	0.745	0.477	1	
NCI-H2170									0.925	0.875	0.773	0.514		0.624	0.552	0.74	0.578	0.549		0.736
LC-2-ad	1.03	0.779	0.704	0.469	0.884	0.735	0.611	0.395	0.886	0.734	0.702	0.513		0.555		0.402	0.383	0.337		0.692

Cell Line	relative viability (Palbociclib + Bortezomib; first compound 0.01 µM)	relative viability (Palbociclib + Bortezomib; first compound 0.1 µM)	relative viability (Palbociclib + Bortezomib; first compound 0.3162 µM)	relative viability (Palbociclib + Bortezomib; first compound 1 µM)	relative viability (Palbociclib + Linsitinib; first compound 0.01 µM)	relative viability (Palbociclib + Linsitinib; first compound 0.1 µM)	relative viability (Palbociclib + Linsitinib; first compound 0.3162 µM)	relative viability (Palbociclib + Linsitinib; first compound 1 µM)	relative viability (Palbociclib + AZD7762; first compound 0.01 µM)	relative viability (Palbociclib + AZD7762; first compound 0.1 µM)	relative viability (Palbociclib + AZD7762; first compound 0.3162 µM)	relative viability (Palbociclib + AZD7762; first compound 1 µM)	relative viability (Palbociclib + Bortezomib; first compound 0.03162 µM)	relative viability (Palbociclib + Navitoclax; first compound 0.01 µM)	relative viability (Palbociclib + Navitoclax; first compound 0.03162 µM)	relative viability (Palbociclib + Navitoclax; first compound 0.1 µM)	relative viability (Palbociclib + Navitoclax; first compound 0.3162 µM)	relative viability (Palbociclib + Navitoclax; first compound 1 µM)	relative viability (Palbociclib + Linsitinib; first compound 0.03162 µM)	relative viability (Palbociclib + AZD7762; first compound 0.03162 µM)
NCI-H1793					0.722	0.647	0.583	0.518	0.518	0.549	0.528	0.277		0.382	0.38	0.506	0.394	0.369	0.681	0.393
NCI-H1915	1.02	0.921	0.947	0.778	1.11	1.07	1.01	0.947	0.685	0.718	0.649	0.608	0.684	0.764	0.733	0.771	0.782	0.763	1.04	
NCI-H322M	1.27	1.07	1.01	0.785	0.892	0.718	0.78	0.638	0.59	0.524	0.507	0.451	1.07	1.14	1.31	1.03	0.964	0.808	0.836	0.572
NCI-H1792	0.934	0.917	0.852	0.711	0.52	0.397	0.371	0.25	0.663	0.462	0.576	0.185	0.875	0.583	0.537	0.592	0.461	0.321	0.435	0.559
NCI-H1563	0.824	0.869	0.796	0.577	1.19	1.15	1	0.887					0.98						1.25	
ABC-1	0.323	0.232	0.292	0.394	1.06	0.666	0.583	0.382	0.931	0.727	0.957	0.752	0.32						0.925	0.614
NCI-H1299	1	0.925	0.873	0.72	0.961	0.908	0.866	0.685					0.871	1.09	0.949	0.909	0.846	0.715	0.983	
SW 900									0.67	0.641	0.644	0.46								
NCI-H661	0.874	0.588	0.649	0.521	0.547	0.46	0.421	0.351					0.584						0.529	
NCI-H1395					1.35	0.737	0.887	0.726	0.428	0.406	0.453	0.407		1.22	1.17	0.924	0.943	0.656	0.968	0.406
NCI-H358					0.673	0.354	0.247	0.229	0.535	0.347	0.29	0.213							0.559	0.417
A549					0.619	0.316	0.457	0.274						1.09	0.904	0.667	0.515	0.335	0.38	
NCI-H2023	0.96	0.705	0.654	0.391	0.658	0.57	0.472	0.316					0.279	1	0.897	0.897	0.77	0.48	0.597	
UMC-11	0.934	0.466	0.292	0.238	1.02	0.888	0.536	0.326					0.625	0.326	0.326	0.23	0.257	0.223	0.894	
LK-2					0.521	0.468	0.434	0.608	0.472	0.374	0.338	0.303		1.04		0.651	0.819	0.843	0.486	0.297
LCLC-103H	1.2	0.967	0.87	0.649	1.04	0.918	1	0.826	0.731	0.716	0.708	0.539	0.957						1.15	0.55
SW 1573	1.15	0.985	0.842	0.506	0.69	0.639	0.669	0.5					0.928	0.986	1	0.838	0.642	0.439	0.733	
NCI-H520	0.496	0.35	0.403	0.236	1.06	0.661	0.67	0.392					0.496	1.08	0.719	0.745	0.785	0.481	0.721	
SK-LU-1	1.47	0.92	0.912	0.58	0.975	0.777	0.771	0.627						0.938	0.757	0.725	0.539	0.733	1.06	
NCI-H2009	0.987	0.68	0.679	0.219	1.18	0.957	0.909	0.494					0.867	1.15	1.17	0.908	0.896	0.404	1.02	
NCI-H2342									0.457	0.414	0.409	0.399								0.467
IA-LM	0.606	0.469	0.348	0.134	0.492	0.395	0.221	0.118					0.49	0.589	0.43	0.234	0.206	0.119	0.399	
